In brackets after ≈: the same amount, converted by molar mass. A value given as a limit tells only on which side of the number the result lay.

Experiment [1] deals with HCMV recombinant mutant virus (RV145). Put plainly: HCMV microtiter plate assay (beta-glucuronidase reporter). As to conditions: for IC50: Human betaherpesvirus 5, Fibroblast, read-out: IC50 (ug/ml) HCMV. Format: cell-based, Human Cytomegalovirus. In short, it runs like this:
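Human foreskin fibroblasts were infected with RV145 in the presence of inhibitor. β-glucuronidase under a viral promoter served as the replication marker. At 96 h post-infection, lysates in pH 7.0 phosphate with Triton X-100/sarkosyl were assayed colorimetrically or fluorometrically, and IC50 was estimated from varying inhibitor amounts.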

For a further experiment, the system named is HSV-1. As to the kind of experiment: HSV Antiviral (ELISA) assay. Format: cell-based. The settings on record: for IC50: Human alphaherpesvirus 1, HSV-1 in Vero cells, read-out: IC50 (ug/ml) HSV. In short, it runs like this: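 Vero cells in DMEM/2% FBS pretreated with compound 30 min before HSV-1 infection (MOI 0.006), then ~24 h at 37 °C. Viral gD detected by ELISA with β-galactosidase secondary and 4-methylumbelliferyl-galactoside (ex 365/em 450 nm); IC50 from fluorescence versus untreated infected cells.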

The next experiment has as its system VZV strain Ellen. Put plainly: VZV Antiviral (ELISA) assay. It counts as cell-based. As to conditions: for inhibition at 10 µg/mL: Human alphaherpesvirus 3, read-out: % inhibition 10 ug/ml VZV, at 10 ug/ml, VZV strain Ellen in HFF cells; for IC50: Human alphaherpesvirus 3, VZV strain Ellen in HFF cells, read-out: IC50 (ug/ml) VZV. Put shortly:
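Cell-based VZV (Ellen) spread assay in HFF, 3-day compound exposure in 2% FBS medium. Viral antigen quantified by fluorescent β-galactosidase ELISA; IC50 from inhibition of signal.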

As for `O=C(Nc1ccc(NC(=S)Nc2cccc(OC(F)(F)F)c2)cc1)c1ccccc1F` [Example 1011, 2-Fluoro-N-{4-[3-(3-trifluoromethoxy-phenyl)-thioureido]-phenyl} -benzamide], the values for the IC50 (in experiment [1]; in the experiment with HSV-1) were 0.039 µg/mL (≈ 0.0868 µM) and > 10 µg/mL, respectively. Further, the inhibition at 10 µg/mL in the experiment on VZV strain Ellen worked out at 20%.
Turning to `O=C(Nc1ccc(NC(=S)Nc2cccc(S(=O)(=O)CCO)c2)cc1)c1ccco1` [Example 1018, Furan-2-carboxylic acid (4-{3-[3-(2-hydroxy-ethanesulfonyl)-phenyl]-thioureido} -phenyl)-amide], the IC50 in experiment [1] is 0.4 µg/mL (≈ 0.898 µM); in the experiment with HSV-1, > 10 µg/mL; with VZV strain Ellen, > 10 µg/mL. In addition, the inhibition at 10 µg/mL in the experiment with VZV strain Ellen was 2%.
For the compound `O=C(Nc1ccc(NC(=S)Nc2cccc(S(=O)(=O)CCO)c2)cc1)c1ccccc1F` [Example 1019, 2-Fluoro-N-(4-{3-[3-(2-hydroxy-ethanesulfonyl)-phenyl]-thioureido} -phenyl)-benzamide], the figures for the IC50 (in experiment [1]; in the experiment on HSV-1) were 1.5 µg/mL (≈ 3.17 µM) and > 10 µg/mL, respectively. Also, in the experiment on VZV strain Ellen, the inhibition at 10 µg/mL stood at 2%.
Turning to `Cc1cc(NC(=S)NC(C)c2ccc(F)cc2)ccc1NC(=O)c1cc2ccccc2cn1` (centres unmarked) [Example 1126, Isoquinoline-3-carboxylic acid (4-{3-[1-(4-fluoro-phenyl)-ethyl]-thioureido}-2-methyl-phenyl)-amide], the IC50 in experiment [1] was 5.8 µg/mL (≈ 12.6 µM); in the experiment with HSV-1, > 10 µg/mL; in the experiment with VZV strain Ellen it was 0.7 µg/mL (≈ 1.53 µM).
As to `CC(NC(=S)Nc1ccc(NC(=O)c2cnccn2)cc1)c1ccc(F)cc1` (centres unmarked) [Example 1127, Pyrazine-2-carboxylic acid (4-{3-[1-(4-fluoro-phenyl)-ethyl]-thioureido}-phenyl)-amide], the IC50 in experiment [1] amounted to 1 µg/mL (≈ 2.53 µM); in the experiment on HSV-1, 9.5 µg/mL (≈ 24 µM); with VZV strain Ellen, 3.7 µg/mL (≈ 9.36 µM).
The matching figures for `CC(NC(=S)Nc1ccc(NC(=O)c2cccs2)cc1)c1ccc(F)cc1` (centres unmarked) [Example 1128, Thiophene-2-carboxylic acid (4-{3-[1-(4-fluoro-phenyl)-ethyl]-thioureido}-phenyl)-amide]: 1.3 µg/mL (≈ 3.25 µM), > 10 µg/mL and > 10 µg/mL.
On the same counts, the results for `CC(NC(=S)Nc1ccc(NC(=O)c2ccsc2)cc1)c1ccc(F)cc1` (centres unmarked) [Example 1129, Thiophene-3-carboxylic acid (4-{3-[1-(4-fluoro-phenyl)-ethyl]-thioureido}-phenyl)-amide] are 1 µg/mL (≈ 2.5 µM), 1.9 µg/mL (≈ 4.76 µM) and > 10 µg/mL.
The matching figures for `CC(C)c1nc(C(=O)Nc2ccc(NC(=S)Nc3ccc(Cl)c(C(F)(F)F)c3)cc2)cs1` [Example 1130, 2-Isopropyl-thiazole-4-carboxylic acid {4-[3-(4-chloro-3-trifluoromethyl-phenyl)-thioureido]-phenyl}-amide]: 2 µg/mL (≈ 4.01 µM), 2 µg/mL (≈ 4.01 µM) and 5.5 µg/mL (≈ 11 µM).
Take `CC(C)c1nc(C(=O)Nc2ccc(NC(=S)Nc3cc(Cl)cc(Cl)c3)cc2)cs1` [Example 1131, 2-Isopropyl-thiazole-4-carboxylic acid {4-[3-(3,5-dichloro-phenyl)-thioureido]-phenyl}-amide]: the IC50 in experiment [1] turned out to be 1.5 µg/mL (≈ 3.22 µM); in the experiment with HSV-1, 2.2 µg/mL (≈ 4.73 µM); in the experiment with VZV strain Ellen, 9 µg/mL (≈ 19.3 µM).
On the same counts, the results for `CC(C)c1nc(C(=O)Nc2ccc(NC(=S)Nc3ccc(Cl)c(Cl)c3)cc2)cs1` [Example 1132, 2-Isopropyl-thiazole-4-carboxylic acid {4-[3-(3,4-dichloro-phenyl)-thioureido]-phenyl}-amide] are 1.2 µg/mL (≈ 2.58 µM), 2.6 µg/mL (≈ 5.59 µM) and 3.9 µg/mL (≈ 8.38 µM).
The matching figures for `CC(C)c1nc(C(=O)Nc2ccc(NC(=S)Nc3cc(C(F)(F)F)cc(C(F)(F)F)c3)cc2)cs1` [Example 1133, 2-Isopropyl-thiazole-4-carboxylic acid {4-[3-(3,5 bis-trifluoromethyl-phenyl)-thioureido]-phenyl}-amide]: 1.5 µg/mL (≈ 2.82 µM), 6 µg/mL (≈ 11.3 µM) and > 10 µg/mL.
The matching figures for `CCCCc1nc(C(=O)Nc2ccc(NC(=S)Nc3ccc(Cl)c(Cl)c3)cc2)cs1` [Example 1134, 2-Butyl-thiazole-4-carboxylic acid {4-[3-(3,4-dichloro-phenyl)-thioureido]-phenyl}-amide]: 1 µg/mL (≈ 2.09 µM), 2.4 µg/mL (≈ 5.01 µM) and 1.6 µg/mL (≈ 3.34 µM).
For the compound `CCCCc1nc(C(=O)Nc2ccc(NC(=S)Nc3ccc(Cl)c(C(F)(F)F)c3)cc2)cs1` [Example 1135, 2-Butyl-thiazole-4-carboxylic acid {4-[3-(4-chloro-3-trifluoromethyl-phenyl)-thioureido]-phenyl}-amide], the values for the IC50 (in experiment [1]; in the experiment with HSV-1; with VZV strain Ellen) were 1.3 µg/mL (≈ 2.53 µM), 3.6 µg/mL (≈ 7.02 µM) and 7.5 µg/mL (≈ 14.6 µM), respectively.
On the same counts, the results for `CCCCc1nc(C(=O)Nc2ccc(NC(=S)Nc3cc(Cl)cc(Cl)c3)cc2)cs1` [Example 1136, 2-Butyl-thiazole-4-carboxylic acid {4-[3-(3,5-dichloro-phenyl)-thioureido]-phenyl}-amide] are 1.6 µg/mL (≈ 3.34 µM), 2.9 µg/mL (≈ 6.05 µM) and 5 µg/mL (≈ 10.4 µM).
On the same counts, the results for `CCCCc1nc(C(=O)Nc2ccc(NC(=S)Nc3cc(C(F)(F)F)cc(C(F)(F)F)c3)cc2)cs1` [Example 1137, 2-Butyl-thiazole-4-carboxylic acid {4-[3-(3,5-bis-trifluoromethyl-phenyl)-thioureido]-phenyl}-amide] are 0.6 µg/mL (≈ 1.1 µM), > 10 µg/mL and 3.5 µg/mL (≈ 6.4 µM).
With `Cc1nc(C(=O)Nc2ccc(NC(=S)Nc3cc(Cl)cc(Cl)c3)cc2)cs1` [Example 1138, 2-Methyl-thiazole-4-carboxylic acid {4-[3-(3,5-dichloro-phenyl)-thioureido]-phenyl}-amide], the results for the IC50 (in experiment [1]; with HSV-1; with VZV strain Ellen) were 0.65 µg/mL (≈ 1.49 µM), > 10 µg/mL and > 10 µg/mL, respectively.
Take `Cc1nc(C(=O)Nc2ccc(NC(=S)Nc3ccc(Cl)c(Cl)c3)cc2)cs1` [Example 1139, 2-Methyl-thiazole-4-carboxylic acid {4-[3-(3,4-dichloro-phenyl)-thioureido]-phenyl}-amide]: the IC50 in experiment [1] is 1.2 µg/mL (≈ 2.74 µM); in the experiment on HSV-1, 3.7 µg/mL (≈ 8.46 µM); in the experiment on VZV strain Ellen, 6 µg/mL (≈ 13.7 µM).
The matching figures for `Cc1nc(C(=O)Nc2ccc(NC(=S)Nc3cc(C(F)(F)F)cc(C(F)(F)F)c3)cc2)cs1` [Example 1140, 2-Methyl-thiazole-4-carboxylic acid {4-[3-(3,5-bis-trifluoromethyl-phenyl)-thioureido]-phenyl}-amide]: 1.6 µg/mL (≈ 3.17 µM), 3.5 µg/mL (≈ 6.94 µM) and 4 µg/mL (≈ 7.93 µM).
The matching figures for `O=C(Nc1ccc(NC(=S)Nc2ccc(Cl)c(C(F)(F)F)c2)cc1)c1csc(-c2ccccc2)n1` [Example 1141, 2-Phenyl-thiazole-4-carboxylic acid {4-[3-(4-chloro-3-trifluoromethyl-phenyl)-thioureido]-phenyl}-amide]: 1.9 µg/mL (≈ 3.56 µM), > 10 µg/mL and > 10 µg/mL.
On the same counts, the results for `O=C(Nc1ccc(NC(=S)Nc2cc(Cl)cc(Cl)c2)cc1)c1csc(-c2ccccc2)n1` [Example 1142, 2-Phenyl-thiazole-4-carboxylic acid {4-[3-(3,5-dichloro-phenyl)-thioureido]-phenyl}-amide] are 1.8 µg/mL (≈ 3.6 µM), > 10 µg/mL and > 10 µg/mL.
Consider `O=C(Nc1ccc(NC(=S)Nc2ccc(Cl)c(Cl)c2)cc1)c1csc(-c2ccccc2)n1` [Example 1143, 2-Phenyl-thiazole-4-carboxylic acid {4-[3-(3,4-dichloro-phenyl)-thioureido]-phenyl}-amide], for which the IC50 in experiment [1] is 7.5 µg/mL (≈ 15 µM); with HSV-1, > 10 µg/mL; in the experiment on VZV strain Ellen, > 10 µg/mL.
Consider “[1,2,3]Thiadiazole-4-carboxylic acid {4-[3-(3,4,5-chloro-4-isoxazol-5-yl-phenyl)-thioureido]-phenyl}-amide [Example 990]”, for which the “IC50 (ug/ml) HCMV” value in experiment [1] (HCMV in human foreskin fibroblasts) was found to be 0.011 µg/mL. The “IC50 (ug/ml) HSV” value with HSV-1 (HSV-1 in Vero cells) was 8 µg/mL. For the same compound, in the experiment on VZV strain Ellen (VZV strain Ellen in HFF cells), the “IC50 (ug/ml) VZV” value amounted to 4.5 µg/mL. In the experiment on VZV strain Ellen (at 10 ug/ml, VZV strain Ellen in HFF cells), the “% inhibition 10 ug/ml VZV” value is listed as 99%.

The values above are taken from patent US6426355B1, “Heterocyclic carboxamide-containing thiourea inhibitors of herpes viruses containing phenylenediamine group” (American Home Products, priority 1998, dated 2002).
